# Measurements taken from PubChem BioAssay (NCI).
#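 Method: 48-hour compound exposure of cells in 96-well plates, five concentrations, linear interpolation of endpoints. Here, GI50 denotes the concentration required for 50% inhibition of growth. TGI is the concentration that stops growth completely.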
# Assays:
# Assay in all cases: inhibition of tumour cell growth, NCI panel, 48 h
# 786-0 renal = system: 786-0 renal
# A498 renal = system: A498 renal
# A549 NSCLC = system: A549 NSCLC
# ACHN renal = system: ACHN renal
# BT-549 breast = system: BT-549 breast
# CAKI-1 renal = system: CAKI-1 renal
# CCRF-CEM leukemia = system: CCRF-CEM leukemia
# COLO 205 colon = system: COLO 205 colon
# DU-145 prostate = system: DU-145 prostate
# EKVX NSCLC = system: EKVX NSCLC
# HCC-2998 colon = system: HCC-2998 colon
# HCT-116 colon = system: HCT-116 colon
# HCT-15 colon = system: HCT-15 colon
# HL-60(TB) leukemia = system: HL-60(TB) leukemia
# HOP-62 NSCLC = system: HOP-62 NSCLC
# HOP-92 NSCLC = system: HOP-92 NSCLC
# HS 578T breast = system: HS 578T breast
# HT29 colon = system: HT29 colon
# IGROV1 ovarian = system: IGROV1 ovarian
# K-562 leukemia = system: K-562 leukemia
# KM12 colon = system: KM12 colon
# LOX IMVI melanoma = system: LOX IMVI melanoma
# M14 melanoma = system: M14 melanoma
# MALME-3M melanoma = system: MALME-3M melanoma
# MCF7 breast = system: MCF7 breast
# MDA-MB-231 breast = system: MDA-MB-231 breast
# MDA-MB-435 = system: MDA-MB-435
# MDA-MB-468 breast = system: MDA-MB-468 breast
# MOLT-4 leukemia = system: MOLT-4 leukemia
# NCI-H226 lung = system: NCI-H226 lung
# NCI-H23 lung = system: NCI-H23 lung
# NCI-H522 lung = system: NCI-H522 lung
# NCI/ADR-RES ovarian = system: NCI/ADR-RES ovarian
# OVCAR-3 ovarian = system: OVCAR-3 ovarian
# OVCAR-4 ovarian = system: OVCAR-4 ovarian
# OVCAR-5 ovarian = system: OVCAR-5 ovarian
# OVCAR-8 ovarian = system: OVCAR-8 ovarian
# PC-3 prostate = system: PC-3 prostate
# RXF 393 renal = system: RXF 393 renal
# SF-268 CNS = system: SF-268 CNS
# SF-295 CNS = system: SF-295 CNS
# SF-539 CNS = system: SF-539 CNS
# SK-MEL-2 melanoma = system: SK-MEL-2 melanoma
# SK-MEL-28 melanoma = system: SK-MEL-28 melanoma
# SK-MEL-5 melanoma = system: SK-MEL-5 melanoma
# SK-OV-3 ovarian = system: SK-OV-3 ovarian
# SN12C renal = system: SN12C renal
# SNB-19 CNS = system: SNB-19 CNS
# SNB-75 CNS = system: SNB-75 CNS
# SR leukemia = system: SR leukemia
# SW-620 colon = system: SW-620 colon
# T-47D breast = system: T-47D breast
# TK-10 renal = system: TK-10 renal
# U251 CNS = system: U251 CNS
# UACC-257 melanoma = system: UACC-257 melanoma
# UACC-62 melanoma = system: UACC-62 melanoma
# UO-31 renal = system: UO-31 renal
smiles,measurement,setting,value
CN1CCN(Cc2ccc(C(=O)Nc3cccc(Nc4ccc5c(O)cccc5n4)c3)cc2C(F)(F)F)CC1,GI50,786-0 renal,2110 nM
same,TGI,786-0 renal,4.28 µM
same,GI50,A498 renal,17.5 µM
same,TGI,A498 renal,33.3 µM
same,GI50,A549 NSCLC,4.5 µM
same,TGI,A549 NSCLC,20 µM
same,GI50,ACHN renal,2070 nM
same,TGI,ACHN renal,4.92 µM
same,GI50,BT-549 breast,15.6 µM
same,TGI,BT-549 breast,30.2 µM
same,GI50,CAKI-1 renal,2130 nM
same,TGI,CAKI-1 renal,5.17 µM
same,GI50,CCRF-CEM leukemia,2910 nM
same,TGI,CCRF-CEM leukemia,> 100 µM
same,GI50,COLO 205 colon,1990 nM
same,TGI,COLO 205 colon,3.94 µM
same,GI50,DU-145 prostate,4.68 µM
same,TGI,DU-145 prostate,17.7 µM
same,GI50,EKVX NSCLC,3.75 µM
same,TGI,EKVX NSCLC,14.1 µM
same,GI50,HCC-2998 colon,1890 nM
same,TGI,HCC-2998 colon,3.36 µM
same,GI50,HCT-116 colon,2700 nM
same,TGI,HCT-116 colon,> 100 µM
same,GI50,HCT-15 colon,1820 nM
same,TGI,HCT-15 colon,3.54 µM
same,GI50,HL-60(TB) leukemia,2470 nM
same,TGI,HL-60(TB) leukemia,5.67 µM
same,GI50,HOP-62 NSCLC,3 µM
same,TGI,HOP-62 NSCLC,8.85 µM
same,GI50,HOP-92 NSCLC,1320 nM
same,TGI,HOP-92 NSCLC,5.8 µM
same,GI50,HS 578T breast,2960 nM
same,TGI,HS 578T breast,21.8 µM
same,GI50,HT29 colon,2060 nM
same,TGI,HT29 colon,4.41 µM
same,GI50,IGROV1 ovarian,4.7 µM
same,TGI,IGROV1 ovarian,17 µM
same,GI50,K-562 leukemia,2420 nM
same,TGI,K-562 leukemia,24.5 µM
same,GI50,KM12 colon,2300 nM
same,TGI,KM12 colon,5.23 µM
same,GI50,LOX IMVI melanoma,1650 nM
same,TGI,LOX IMVI melanoma,3.01 µM
same,GI50,M14 melanoma,2210 nM
same,TGI,M14 melanoma,5.67 µM
same,GI50,MALME-3M melanoma,1670 nM
same,TGI,MALME-3M melanoma,3.12 µM
same,GI50,MCF7 breast,1740 nM
same,TGI,MCF7 breast,3.41 µM
same,GI50,MDA-MB-231 breast,1620 nM
same,TGI,MDA-MB-231 breast,3.75 µM
same,GI50,MDA-MB-435,1780 nM
same,TGI,MDA-MB-435,3.78 µM
same,GI50,MDA-MB-468 breast,1620 nM
same,TGI,MDA-MB-468 breast,3.16 µM
same,GI50,MOLT-4 leukemia,1860 nM
same,TGI,MOLT-4 leukemia,5.29 µM
same,GI50,NCI-H226 lung,19.2 µM
same,TGI,NCI-H226 lung,41.7 µM
same,GI50,NCI-H23 lung,2260 nM
same,TGI,NCI-H23 lung,4.79 µM
same,GI50,NCI-H522 lung,1930 nM
same,TGI,NCI-H522 lung,3.97 µM
same,GI50,NCI/ADR-RES ovarian,3.45 µM
same,TGI,NCI/ADR-RES ovarian,12 µM
same,GI50,OVCAR-3 ovarian,3.1 µM
same,TGI,OVCAR-3 ovarian,8 µM
same,GI50,OVCAR-4 ovarian,7.39 µM
same,TGI,OVCAR-4 ovarian,21 µM
same,GI50,OVCAR-5 ovarian,3.24 µM
same,TGI,OVCAR-5 ovarian,14.4 µM
same,GI50,OVCAR-8 ovarian,3.56 µM
same,TGI,OVCAR-8 ovarian,14 µM
same,GI50,PC-3 prostate,2530 nM
same,TGI,PC-3 prostate,14.6 µM
same,GI50,RXF 393 renal,1660 nM
same,TGI,RXF 393 renal,3.58 µM
same,GI50,SF-268 CNS,3.81 µM
same,TGI,SF-268 CNS,19 µM
same,GI50,SF-295 CNS,1650 nM
same,TGI,SF-295 CNS,3.16 µM
same,GI50,SF-539 CNS,1670 nM
same,TGI,SF-539 CNS,3.08 µM
same,GI50,SK-MEL-2 melanoma,1920 nM
same,TGI,SK-MEL-2 melanoma,3.68 µM
same,GI50,SK-MEL-28 melanoma,1770 nM
same,TGI,SK-MEL-28 melanoma,3.21 µM
same,GI50,SK-MEL-5 melanoma,1680 nM
same,TGI,SK-MEL-5 melanoma,3.07 µM
same,GI50,SK-OV-3 ovarian,14.4 µM
same,TGI,SK-OV-3 ovarian,29.2 µM
same,GI50,SN12C renal,2340 nM
same,TGI,SN12C renal,6.03 µM
same,GI50,SNB-19 CNS,2390 nM
same,TGI,SNB-19 CNS,5.15 µM
same,GI50,SNB-75 CNS,1850 nM
same,TGI,SNB-75 CNS,13.7 µM
same,GI50,SR leukemia,4.39 µM
same,TGI,SR leukemia,> 100 µM
same,GI50,SW-620 colon,2240 nM
same,TGI,SW-620 colon,4.18 µM
same,GI50,T-47D breast,10.7 µM
same,TGI,T-47D breast,26.4 µM
same,GI50,TK-10 renal,3.36 µM
same,TGI,TK-10 renal,13.1 µM
same,GI50,U251 CNS,2380 nM
same,TGI,U251 CNS,5.2 µM
same,GI50,UACC-257 melanoma,1920 nM
same,TGI,UACC-257 melanoma,3.86 µM
same,GI50,UACC-62 melanoma,1730 nM
same,TGI,UACC-62 melanoma,3.49 µM
same,GI50,UO-31 renal,1990 nM
same,TGI,UO-31 renal,4.29 µM
